For 23 molecules, EC50 results are on record in patent publication US10392347B2, “2,4-dihydroxy-nicotinamides as APJ agonists” (BRISTOL-MYERS SQUIBB COMPANY, priority 2015, dated 2019).

Broadly, the EC50 is the midpoint of the concentration-response curve.

In this assay the target is T1, human APJ receptor (Homo sapiens, UniProt P35414).
T1 construct: expressed in transfected cells
T1 sequence (P35414 1-380): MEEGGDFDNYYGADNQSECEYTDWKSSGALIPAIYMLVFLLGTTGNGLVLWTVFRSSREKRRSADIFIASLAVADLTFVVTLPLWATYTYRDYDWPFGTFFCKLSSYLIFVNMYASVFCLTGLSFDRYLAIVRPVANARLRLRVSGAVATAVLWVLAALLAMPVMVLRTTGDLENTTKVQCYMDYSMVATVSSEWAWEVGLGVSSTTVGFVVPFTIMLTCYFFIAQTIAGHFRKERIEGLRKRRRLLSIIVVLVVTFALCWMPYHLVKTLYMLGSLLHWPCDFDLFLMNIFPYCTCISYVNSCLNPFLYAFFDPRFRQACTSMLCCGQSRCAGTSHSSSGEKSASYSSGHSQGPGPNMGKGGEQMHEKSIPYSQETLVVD
In words: Intracellular cAMP accumulation assay (APJ hcAMP, HTRF). To be noted: HEK293 cells stably expressing human APJ, forskolin-stimulated cAMP. The assay is classed as cell-based. The method, then: Intracellular cAMP Accumulation Assay
HEK293 cells stably expressing human APJ receptor were used to assess the activity of compounds. Cultured cells were detached and resuspended in the cAMP Homogeneous Time-Resolved Fluorescence (HTRF) assay buffer (Cisbio cat; #62AM4PEJ). […] Serial dilutions of a compound together with assay buffer containing […] and 2 μM forskolin were added to each well containing 5,000 cells and incubated for 30 minutes at room temperature. Subsequently, cAMP D2 reagent was added in the lysis buffer followed by the EuK antibody (Cisbio; cat #62AM4PEJ) and incubated for 60 min. The fluorescence emission ratio was measured using fluorometer. The intracellular cAMP concentrations (compound-stimulated inhibition of forskolin-mediated cAMP production) were calculated by extrapolation from a standard curve using known cAMP concentrations. The EC50 values were obtained by fitting the data to a sigmoidal concentration-response curve with variable slope.
The EC50 value of each compound is presented at the end of the example description.
The biological activity of the exemplified compounds of this invention determined by the assay described above is shown at the end of each example.
Background: cAMP levels reflect the balance of adenylyl cyclase and phosphodiesterase activity.

Setting [1] is: Table 1, read-out: APJ cAMP EC50.
Setting [2] is: Table 4, read-out: Human cAMP EC50.
The mark [3] stands for this setting: Table 2, read-out: APJ cAMP EC50.
[4] abbreviates: Table 7, read-out: Human cAMP EC50.

Read-outs that look alike come from different tables or passages of the source.

Consider `CCCCc1nc(O)c(C(=O)N2CCC(c3cc(-c4ccccc4)[nH]n3)CC2)c(O)c1-c1c(OC)cccc1OC` [Example 67, 6-butyl-5-(2,6-dimethoxyphenyl)-3-[4-(5-phenyl-1H-pyrazol-3-yl)piperidine-1-carbonyl]pyridine-2,4-diol], for which the 50% effective concentration (EC50) under setting [1] lay in the range of 100 to 300 nM. For the molecule `CCCCc1nc(O)c(C(=O)N2CCN(c3ccncc3)CC2)c(O)c1-c1c(OC)cccc1OC` [Example 22, 6-butyl-5-(2,6-dimethoxyphenyl)-3-[4-(pyridin-4-yl)piperazine-1-carbonyl]pyridine-2,4-diol], under setting [1], the EC50 fell in the range of 100 to 300 nM. Regarding `CCCCc1nc(O)c(C(=O)N2CC(NC(=O)c3ccccc3)C2)c(O)c1-c1c(OC)cccc1OC` [Example 98, N-{1-[6-butyl-5-(2,6-dimethoxyphenyl)-2,4-dihydroxypyridine-3-carbonyl]azetidin-3-yl}benzamide], the EC50 under setting [2] was in the range of 0.01 to 10 nM. For `CCCCc1nc(O)c(C(=O)N2CCC3(CC2)CC(=O)Nc2ccccc23)c(O)c1-c1c(OC)cccc1OC` [Example 66, 1-[6-butyl-5-(2,6-dimethoxyphenyl)-2,4-dihydroxypyridine-3-carbonyl]-2′,3′-dihydro-1′H-spiro[piperidine-4,4′-quinoline]-2′-one], the EC50 under setting [1] fell in the range of 10 to 100 nM.

As for `CCCCc1nc(O)c(C(=O)N2CCN(Cc3cccc(C(F)(F)F)c3)CC2)c(O)c1-c1c(OC)cccc1OC` [Example 107, 6-butyl-5-(2,6-dimethoxyphenyl)-3-(4-{[3-(trifluoromethyl)phenyl]methyl}piperazine-1-carbonyl)pyridine-2,4-diol], under setting [2], the concentration giving a half-maximal response (EC50) fell in the range of 100 to 300 nM. Regarding `CCCCc1nc(O)c(C(=O)N2CCC(c3cccc(Cl)c3)C2)c(O)c1-c1c(OC)cccc1OC` (single isomer, unassigned) [Example 38, 6-butyl-3-[3-(3-chlorophenyl)pyrrolidine-1-carbonyl]-5-(2,6-dimethoxyphenyl)pyridine-2,4-diol], the EC50 under setting [3] was in the range of 0.01 to 10 nM. Regarding `CCCCc1nc(O)c(C(=O)N2CCC(Cc3ccccc3C)CC2)c(O)c1-c1c(OC)cccc1OC` [Example 106, 6-butyl-5-(2,6-dimethoxyphenyl)-3-{4-[(2-methylphenyl)methyl]piperidine-1-carbonyl}pyridine-2,4-diol], the EC50 under setting [2] lay within 0.01 to 10 nM. As for `COc1cccc(OC)c1-c1c(-c2ccc(F)cc2)nc(O)c(C(=O)N2CCC(c3ccccc3F)C2)c1O` (centres unmarked) [Example 86, (5-(2,6-dimethoxyphenyl)-6-(4-fluorophenyl)-2,4-dihydroxypyridin-3-yl)(3-(2-fluorophenyl)pyrrolidin-1-yl)methanone], under “Table 3, read-out: APJ cAMP EC50”, the EC50 lay in the range of 0.01 to 10 nM. As to `CCCCc1nc(O)c(C(=O)N2CCC(c3ccc(F)cc3)C2)c(O)c1-c1c(OC)cccc1OC` (single isomer, unassigned) [Example 40, 6-butyl-5-(2,6-dimethoxyphenyl)-3-[3-(4-fluorophenyl)pyrrolidine-1-carbonyl]pyridine-2,4-diol], under setting [3], the EC50 was 0.01 to 10 nM. Turning to `CCCCc1nc(O)c(C(=O)N2CCC(c3cccc(Cl)c3)CC2)c(O)c1-c1c(OC)cccc1OC` [Example 56, 6-butyl-3-[4-(3-chlorophenyl)piperidine-1-carbonyl]-5-(2,6-dimethoxyphenyl)pyridine-2,4-diol], the EC50 under setting [1] fell in the range of 10 to 100 nM.

For `CCCCc1nc(O)c(C(=O)N2CCN(C(=O)c3ccccc3)CC2)c(O)c1-c1c(OC)cccc1OC` [Example 41, 3-(4-benzoylpiperazine-1-carbonyl)-6-butyl-5-(2,6-dimethoxyphenyl)pyridine-2,4-diol], the EC50 under setting [1] fell in the range of 0.01 to 10 nM. For the setting “APJ cAMP EC50 (nM), Table 1”, `CCCCc1[nH]c(=O)c(C(=O)N(CCC)Cc2ccccc2)c(O)c1-c1c(OC)cccc1OC` [Example 33, N-benzyl-6-butyl-5-(2,6-dimethoxyphenyl)-2,4-dihydroxy-N-propylpyridine-3-carboxamide] yielded an EC50 of 100 to 300 nM.

For `CCOCc1nc(O)c(C(=O)N2CCC(c3c(F)cccc3F)C2)c(O)c1-c1c(OC)cccc1OC` (centres unmarked) [Example 133, 3-[3-(2,6-difluorophenyl)pyrrolidine-1-carbonyl]-5-(2,6-dimethoxyphenyl)-6-(ethoxymethyl)-4-hydroxy-1,2-dihydropyridin-2-one], the EC50 (Table 6, read-out: Human cAMP EC50) fell in the range of 0.01 to 10 nM.

As to `CCCCc1nc(O)c(C(=O)N2CCC(c3nc(CCC)no3)CC2)c(O)c1-c1c(OC)cccc1OC` [Example 5, 6-butyl-5-(2,6-dimethoxyphenyl)-3-[4-(3-propyl-1,2,4-oxadiazol-5-yl)piperidine-1-carbonyl]pyridine-2,4-diol], the concentration giving a half-maximal response (EC50) under setting [1] is 10 to 100 nM. Consider `CCCCc1nc(O)c(C(=O)N2CCC(c3ncc(F)cc3F)C2)c(O)c1-c1cccc(OC)c1` (centres unmarked) [Example 143, 6-butyl-3-[3-(3,5-difluoropyridin-2-yl)pyrrolidine-1-carbonyl]-5-(3-methoxyphenyl)pyridine-2,4-diol], for which the EC50 under setting [4] lay in the range of 0.01 to 10 nM. As for `CCOCc1nc(O)c(C(=O)N2CC[C@H](c3ccccc3)C2)c(O)c1-c1c(OC)cccc1OC` [Example 26, 5-(2,6-dimethoxyphenyl)-6-(ethoxymethyl)-3-[(3R)-3-phenylpyrrolidine-1-carbonyl]pyridine-2,4-diol], the EC50 under setting [1] lay in the range of 10 to 100 nM. Take `CCCCc1nc(O)c(C(=O)N2CCN(Cc3cccc(F)c3F)CC2)c(O)c1-c1c(OC)cccc1OC` [Example 108, 6-butyl-3-{4-[(2,3-difluorophenyl)methyl]piperazine-1-carbonyl}-5-(2,6-dimethoxyphenyl)pyridine-2,4-diol]: the EC50 under setting [2] was in the range of 0.01 to 10 nM. `CCCCc1nc(O)c(C(=O)N2CCC(Cc3cc(F)ccc3Br)CC2)c(O)c1-c1c(OC)cccc1OC` [Example 113, 3-{4-[(2-bromo-5-fluorophenyl)methyl]piperidine-1-carbonyl}-6-butyl-5-(2,6-dimethoxyphenyl)pyridine-2,4-diol]: under setting [2], the EC50 lay within 0.01 to 10 nM.

`CCCCc1nc(O)c(C(=O)N2CCN(Cc3ccccc3F)CC2)c(O)c1-c1c(OC)cccc1OC` [Example 44, 6-butyl-5-(2,6-dimethoxyphenyl)-3-{4-[(2-fluorophenyl)methyl]piperiazine-1-carbonyl}pyridine-2.4-diol]: the concentration for a half-maximal effect (EC50) under setting [1] fell in the range of 0.01 to 10 nM. In the case of `CCCCc1nc(O)c(C(=O)N2CCN(c3cccnn3)CC2)c(O)c1-c1c(OC)cccc1OC` [Example 21, 6-butyl-5-(2,6-dimethoxyphenyl)-3-[4-(pyridazin-3-yl)piperazine-1-carbonyl]pyridine-2,4-diol], under setting [1], the 50% effective concentration (EC50) lay within 100 to 300 nM. On to `CCCCc1nc(O)c(C(=O)N2CCC(c3ncc(F)cc3F)C2)c(O)c1-c1cccc(C(=O)NC(C)C)c1` (centres unmarked) [Example 145, 3-{2-butyl-5-[3-(3,5-difluoropyridin-2-yl)pyrrolidine-1-carbonyl]-4,6-dihydroxypyridin-3-yl}-N-(propan-2-yl)benzamide], for which the half-maximal effective concentration (EC50) under setting [4] was in the range of 0.01 to 10 nM.

As for `CCCCc1nc(O)c(C(=O)N2CCN(c3nc4ccccc4o3)CC2)c(O)c1-c1c(OC)cccc1OC` [Example 51, 3-[4-(1,3-benzoxazol-2-yl)piperazine-1-carbonyl]-6-butyl-5-(2,6-dimethoxyphenyl)pyridine-2,4-diol], the 50% effective concentration (EC50) under setting [1] fell in the range of 10 to 100 nM. Still for that read-out and setting: with `CCCCc1nc(O)c(C(=O)N2CCCN(c3nnnn3-c3ccccc3)CC2)c(O)c1-c1c(OC)cccc1OC` [Example 53, 6-butyl-5-(2,6-dimethoxyphenyl)-3-[4-(1-phenyl-1H-1,2,3,4-tetrazol-5-yl)-1,4-diazepane-1-carbonyl]pyridine-2,4-diol] the figure was 10 to 100 nM.
